{"source": "patent US20240189318A1", "about": "“THERAPEUTIC REGIMENS OF AN INHIBITOR OF THE ENZYMATIC ACTIVITY OF BRG1 AND BRM” (FOGHORN THERAPEUTICS INC., priority 2021, published 2024)", "key": {"249 other ATPases": {"test_system": "249 other ATPases", "test": "Additional profiling: binding to other ATPases in cells"}, "[1]": {"test_system": "92-1 uveal melanoma cells", "test": "92-1 uveal melanoma xenograft, Example 16", "type": "in vivo"}, "BCRP [2]": {"biological_target": "T1, BCRP (Homo sapiens, UniProt Q9UNQ0)", "T1 construct": "expressed in transfected cells; host or cells: MDCK-II", "T1 sequence (Q9UNQ0 1-655)": "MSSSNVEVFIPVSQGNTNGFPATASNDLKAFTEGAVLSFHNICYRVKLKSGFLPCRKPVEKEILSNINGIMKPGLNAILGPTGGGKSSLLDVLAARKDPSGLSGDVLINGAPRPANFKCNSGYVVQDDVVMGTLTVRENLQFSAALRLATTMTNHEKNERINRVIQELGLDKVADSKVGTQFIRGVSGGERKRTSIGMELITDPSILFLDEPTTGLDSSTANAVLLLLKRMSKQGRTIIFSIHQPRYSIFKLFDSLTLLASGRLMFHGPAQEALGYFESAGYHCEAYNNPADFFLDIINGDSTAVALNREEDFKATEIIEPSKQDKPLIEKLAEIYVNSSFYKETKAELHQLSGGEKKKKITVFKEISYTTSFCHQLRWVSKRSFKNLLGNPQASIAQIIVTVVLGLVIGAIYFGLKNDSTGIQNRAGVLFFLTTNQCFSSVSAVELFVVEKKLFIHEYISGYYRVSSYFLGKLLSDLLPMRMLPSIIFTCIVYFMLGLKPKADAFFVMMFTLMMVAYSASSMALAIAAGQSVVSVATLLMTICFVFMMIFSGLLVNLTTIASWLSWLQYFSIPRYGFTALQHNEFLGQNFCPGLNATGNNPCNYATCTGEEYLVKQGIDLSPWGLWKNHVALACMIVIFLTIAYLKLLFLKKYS", "test": "Bidirectional transport in MDCK-II cells expressing BCRP", "type": "in vitro ADME"}, "[3]": {"test": "Bidirectional transport in MDCK control cells (passive permeability)", "type": "in vitro ADME", "conditions": "dog; for Papp B→A at 1 μM / Papp B→A at 50 μM / Papp A→B at 1 μM / Papp A→B at 10 μM / Papp B→A at 10 μM / Papp A→B at 50 μM: MDCK; for Papp A→B at 10 μM / Papp B→A at 10 μM: 10 μM compound of formula (I)"}, "MDCK control cells": {"test_system": "MDCK control cells", "test": "Bidirectional transport in MDCK control cells (passive permeability)", "type": "in vitro ADME", "conditions": "MDCK control cells"}, "OATP1B3": {"biological_target": "T2, OATP1B3 (Homo sapiens, UniProt Q9NPD5)", "T2 construct": "expressed in transfected cells; host or cells: MDCK-II", "T2 sequence (Q9NPD5 whole entry)": "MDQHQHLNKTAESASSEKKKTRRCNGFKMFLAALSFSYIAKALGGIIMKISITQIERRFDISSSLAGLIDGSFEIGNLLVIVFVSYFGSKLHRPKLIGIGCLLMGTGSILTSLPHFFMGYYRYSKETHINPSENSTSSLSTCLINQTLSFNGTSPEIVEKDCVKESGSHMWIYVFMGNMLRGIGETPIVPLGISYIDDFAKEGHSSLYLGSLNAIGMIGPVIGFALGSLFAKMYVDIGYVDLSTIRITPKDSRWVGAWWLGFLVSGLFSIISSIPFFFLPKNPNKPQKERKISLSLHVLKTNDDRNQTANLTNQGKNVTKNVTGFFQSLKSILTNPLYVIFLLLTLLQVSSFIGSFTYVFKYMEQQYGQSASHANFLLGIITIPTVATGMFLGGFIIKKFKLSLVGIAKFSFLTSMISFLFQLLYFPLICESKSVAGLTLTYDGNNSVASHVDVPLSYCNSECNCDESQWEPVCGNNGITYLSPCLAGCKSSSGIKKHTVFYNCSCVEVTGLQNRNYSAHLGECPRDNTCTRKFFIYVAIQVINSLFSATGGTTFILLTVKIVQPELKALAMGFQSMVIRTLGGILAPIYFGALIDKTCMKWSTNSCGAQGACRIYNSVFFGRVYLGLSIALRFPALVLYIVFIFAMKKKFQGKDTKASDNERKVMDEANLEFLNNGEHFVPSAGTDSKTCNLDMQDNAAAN", "test": "Transporter inhibition in MDCK-II cells, OATP1B3", "type": "in vitro ADME", "conditions": "probe CCK-8 2 μM"}, "BCRP [4]": {"biological_target": "T1, BCRP", "test": "Transporter inhibition in MDCK-II cells, BCRP", "type": "in vitro ADME", "conditions": "for IC50: probe prazosin 2 μM"}, "2C19": {"biological_target": "T3, 2C19 (Homo sapiens, UniProt P33261)", "T3 construct": "from tissue; host or cells: human liver microsomes", "T3 sequence (P33261 whole entry)": "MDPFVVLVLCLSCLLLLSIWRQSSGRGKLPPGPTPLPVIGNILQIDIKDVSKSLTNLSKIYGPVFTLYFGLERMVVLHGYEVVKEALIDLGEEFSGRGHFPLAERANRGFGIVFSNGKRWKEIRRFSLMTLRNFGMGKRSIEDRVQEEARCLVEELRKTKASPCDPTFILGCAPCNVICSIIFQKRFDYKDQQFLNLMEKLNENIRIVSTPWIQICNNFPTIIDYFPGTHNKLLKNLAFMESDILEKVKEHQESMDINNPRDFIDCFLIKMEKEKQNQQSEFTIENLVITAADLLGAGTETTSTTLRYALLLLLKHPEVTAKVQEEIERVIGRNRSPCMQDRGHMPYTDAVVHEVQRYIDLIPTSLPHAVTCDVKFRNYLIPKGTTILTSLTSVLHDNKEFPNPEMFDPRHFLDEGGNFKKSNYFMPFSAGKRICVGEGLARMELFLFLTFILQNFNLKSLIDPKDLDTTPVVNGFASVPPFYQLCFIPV", "test": "Selective chemical inhibition of compound of formula (I) depletion in human liver microsomes, CYP2C19", "type": "in vitro ADME", "conditions": "reaction phenotyping"}, "CYP3A4 mRNA": {"test_system": "CYP3A4 mRNA", "test": "CYP mRNA level (qRT-PCR) in cultured human hepatocytes, CYP3A4", "type": "in vitro ADME", "conditions": "72 hours"}, "CYP3a23 mRNA": {"test_system": "CYP3a23 mRNA", "test": "CYP mRNA expression in cultured rat hepatocytes, CYP3a23", "type": "in vitro ADME", "conditions": "0.3 to 100 nM"}, "BRM": {"biological_target": "BRM (Homo sapiens, UniProt P51531)", "sequence (P51531 whole entry)": "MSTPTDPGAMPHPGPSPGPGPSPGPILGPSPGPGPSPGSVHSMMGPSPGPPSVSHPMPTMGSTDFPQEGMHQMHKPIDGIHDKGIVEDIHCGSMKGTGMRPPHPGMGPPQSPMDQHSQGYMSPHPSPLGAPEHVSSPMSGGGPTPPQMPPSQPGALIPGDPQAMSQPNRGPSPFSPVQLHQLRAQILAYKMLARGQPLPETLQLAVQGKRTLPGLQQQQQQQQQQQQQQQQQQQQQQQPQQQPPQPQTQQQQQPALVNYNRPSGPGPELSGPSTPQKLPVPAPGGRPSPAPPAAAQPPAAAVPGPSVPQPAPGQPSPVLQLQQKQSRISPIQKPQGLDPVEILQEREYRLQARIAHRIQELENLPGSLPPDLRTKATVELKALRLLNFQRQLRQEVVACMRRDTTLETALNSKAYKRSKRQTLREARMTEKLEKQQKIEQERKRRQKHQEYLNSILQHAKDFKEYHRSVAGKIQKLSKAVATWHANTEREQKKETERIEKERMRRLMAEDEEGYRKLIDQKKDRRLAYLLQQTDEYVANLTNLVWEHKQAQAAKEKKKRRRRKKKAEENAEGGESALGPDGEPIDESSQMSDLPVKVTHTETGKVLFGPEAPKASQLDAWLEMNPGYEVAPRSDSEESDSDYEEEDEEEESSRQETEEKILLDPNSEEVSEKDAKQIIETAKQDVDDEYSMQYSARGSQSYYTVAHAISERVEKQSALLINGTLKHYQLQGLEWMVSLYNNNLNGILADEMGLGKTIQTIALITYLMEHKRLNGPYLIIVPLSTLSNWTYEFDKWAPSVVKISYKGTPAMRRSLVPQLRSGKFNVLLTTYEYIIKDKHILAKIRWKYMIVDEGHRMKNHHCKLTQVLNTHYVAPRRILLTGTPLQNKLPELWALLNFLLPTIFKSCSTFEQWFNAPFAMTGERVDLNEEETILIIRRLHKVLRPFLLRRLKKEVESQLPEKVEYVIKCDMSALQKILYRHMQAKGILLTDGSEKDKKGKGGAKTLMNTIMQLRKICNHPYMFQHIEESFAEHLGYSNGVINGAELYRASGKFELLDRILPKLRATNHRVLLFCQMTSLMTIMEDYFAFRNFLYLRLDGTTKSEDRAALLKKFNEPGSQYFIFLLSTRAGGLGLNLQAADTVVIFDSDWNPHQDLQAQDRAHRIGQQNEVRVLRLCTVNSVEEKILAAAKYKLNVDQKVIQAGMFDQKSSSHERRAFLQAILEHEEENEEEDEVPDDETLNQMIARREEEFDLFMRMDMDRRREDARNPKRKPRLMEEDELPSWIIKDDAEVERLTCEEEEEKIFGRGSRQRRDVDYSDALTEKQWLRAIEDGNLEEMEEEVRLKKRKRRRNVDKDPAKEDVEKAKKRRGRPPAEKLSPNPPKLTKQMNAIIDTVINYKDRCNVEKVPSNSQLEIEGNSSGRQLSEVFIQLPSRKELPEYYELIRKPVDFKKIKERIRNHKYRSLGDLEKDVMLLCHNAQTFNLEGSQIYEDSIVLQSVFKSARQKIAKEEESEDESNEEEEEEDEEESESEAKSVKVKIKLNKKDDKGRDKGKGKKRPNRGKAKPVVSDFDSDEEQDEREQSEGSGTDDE", "test": "biochemical"}, "CYP1A2": {"biological_target": "T4, CYP1A2 (Homo sapiens, UniProt P05177)", "T4 sequence (P05177 1-516)": "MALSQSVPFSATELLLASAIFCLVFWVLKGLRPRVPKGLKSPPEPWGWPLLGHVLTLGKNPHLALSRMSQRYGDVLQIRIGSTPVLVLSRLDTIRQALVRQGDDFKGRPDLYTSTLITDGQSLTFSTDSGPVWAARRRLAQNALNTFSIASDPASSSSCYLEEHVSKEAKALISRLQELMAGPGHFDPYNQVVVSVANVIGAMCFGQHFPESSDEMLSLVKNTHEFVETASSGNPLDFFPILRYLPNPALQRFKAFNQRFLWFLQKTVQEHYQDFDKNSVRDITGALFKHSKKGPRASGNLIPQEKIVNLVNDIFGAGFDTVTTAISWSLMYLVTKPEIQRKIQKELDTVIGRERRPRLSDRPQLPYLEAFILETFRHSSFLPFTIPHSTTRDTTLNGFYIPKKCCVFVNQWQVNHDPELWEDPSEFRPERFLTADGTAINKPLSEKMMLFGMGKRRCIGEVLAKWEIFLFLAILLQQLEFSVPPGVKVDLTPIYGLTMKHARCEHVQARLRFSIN", "test": "CYP enzyme inhibition in pooled human liver microsomes, CYP1A2", "conditions": "for inhibition at 30 µM: human, microsomes, Enzyme activity (% inhibition), CYP1A2, probe Phenacetin"}, "CYP2B6 mRNA": {"test_system": "CYP2B6 mRNA", "test": "CYP mRNA level (qRT-PCR) in cultured human hepatocytes, CYP2B6", "conditions": "tested concentrations up to 50 nM"}, "CYP2C19": {"biological_target": "CYP2C19 (Homo sapiens, UniProt P33261)", "sequence (P33261 whole entry)": "as the sequence (P33261 whole entry) above", "test": "CYP enzyme inhibition in pooled human liver microsomes, CYP2C19", "conditions": "for inhibition at 30 µM: human, microsomes, Enzyme activity (% inhibition), CYP2C19, probe S-Mephenytoin"}, "3A4/5": {"test_system": "3A4/5", "test": "Selective chemical inhibition of compound of formula (I) depletion in human liver microsomes, CYP3A4/5", "conditions": "reaction phenotyping"}, "[5]": {"conditions": "human, read-out: Papp A→B, in transporter cells"}, "[6]": {"conditions": "human, read-out: Papp B→A, in transporter cells"}, "[7]": {"conditions": "BCRP assay, 50 μM compound of formula (I)"}, "[8]": {"conditions": "P-gp assay, 1 μM compound of formula (I)"}, "[9]": {"conditions": "PHLM, concentrations up to 30 μM"}, "[10]": {"conditions": "30 Minutes Pre-incubation with NADPH, PHLM"}, "[11]": {"conditions": "30 Minutes Pre-incubation without NADPH, PHLM"}}, "note": "Read-outs that look alike come from different tables or passages of the source.", "data": [{"smiles": "COC[C@H](NC(=O)c1ccn(S(C)(=O)=O)c1)C(=O)Nc1nc(-c2cccc(N3C[C@@H](C)O[C@@H](C)C3)n2)cs1", "note": "[compound of formula (I), N-((S)-1-((4-(6-(cis-2,6-dimethylmorpholino)pyridin-2-yl)thiazol-2-yl)amino)-3-methoxy-1-oxopropan-2-yl)-1-(methylsulfonyl)-1H-pyrrole-3-carboxamide]", "values": [{"measurement": "binding to 249 other ATPases in cells", "setting": "249 other ATPases", "value": "little binding"}, {"measurement": "tumor response at the highest dose", "setting": "[1]; […], once daily oral gavage", "value": "tumor regression"}, {"measurement": "tolerability based on % body weight change", "setting": "[1]; all treatments", "value": "well tolerated"}, {"measurement": "tumor growth inhibition", "setting": "[1]; nude mice, 92-1 xenograft, once daily oral gavage, 3 weeks, increasing doses", "value": "tumor growth inhibition in a dose-dependent manner"}, {"measurement": "BCRP substrate status", "setting": "BCRP [2]; MDCK-II cells expressing BCRP", "value": "substrate"}, {"measurement": "Papp A→B at 1 μM", "setting": "BCRP [2]; [5]", "value": 6.15, "unit": "×10⁻⁶ cm/s"}, {"measurement": "Papp A→B at 10 μM", "setting": "BCRP [2]; [5]", "value": 16.5, "unit": "×10⁻⁶ cm/s"}, {"measurement": "Papp A→B at 50 μM", "setting": "BCRP [2]; [5]", "value": 22.4, "unit": "×10⁻⁶ cm/s"}, {"measurement": "Papp B→A at 1 μM", "setting": "BCRP [2]; [6]", "value": 24.3, "unit": "×10⁻⁶ cm/s"}, {"measurement": "Papp B→A at 10 μM", "setting": "BCRP [2]; [6]", "value": 25.2, "unit": "×10⁻⁶ cm/s"}, {"measurement": "Papp B→A at 50 μM", "setting": "BCRP [2]; [6]", "value": 18.5, "unit": "×10⁻⁶ cm/s"}, {"measurement": "Papp B→A at 1 μM", "setting": "[3]", "value": 18.2, "unit": "×10⁻⁶ cm/s"}, {"measurement": "Papp B→A at 50 μM", "setting": "[3]", "value": 18.5, "unit": "×10⁻⁶ cm/s"}, {"measurement": "Papp A→B at 1 μM", "setting": "[3]; BCRP assay, 1 μM compound of formula (I)", "value": 26, "unit": "×10⁻⁶ cm/s"}, {"measurement": "Papp A→B at 10 μM", "setting": "[3]; BCRP assay", "value": 25.4, "unit": "×10⁻⁶ cm/s"}, {"measurement": "Papp B→A at 10 μM", "setting": "[3]; BCRP assay", "value": 20.9, "unit": "×10⁻⁶ cm/s"}, {"measurement": "Papp A→B at 50 μM", "setting": "[3]; [7]", "value": 21.3, "unit": "×10⁻⁶ cm/s"}, {"measurement": "Papp B→A at 50 μM", "setting": "[3]; [7]", "value": 19.2, "unit": "×10⁻⁶ cm/s"}, {"measurement": "Papp A→B at 1 μM", "setting": "[3]; [8]", "value": 28.8, "unit": "×10⁻⁶ cm/s"}, {"measurement": "Papp B→A at 1 μM", "setting": "[3]; [8]", "value": 21, "unit": "×10⁻⁶ cm/s"}, {"measurement": "Papp A→B at 10 μM", "setting": "[3]; P-gp assay", "value": 31, "unit": "×10⁻⁶ cm/s"}, {"measurement": "Papp B→A at 10 μM", "setting": "[3]; P-gp assay", "value": 23.6, "unit": "×10⁻⁶ cm/s"}, {"measurement": "Papp A→B at 50 μM", "setting": "[3]; P-gp assay, 50 μM compound of formula (I)", "value": 25.5, "unit": "×10⁻⁶ cm/s"}, {"measurement": "Papp", "setting": "[3]; MDCK control cells, read-out: apparent permeability coefficient (Papp) (B→A) or Papp (A→B)", "value": "≥ 15", "unit": "×10⁻⁶ cm/s"}, {"measurement": "passive permeability", "setting": "MDCK control cells", "value": "high passive permeability"}, {"measurement": "IC50", "setting": "OATP1B3; OATP1B3, corrected, read-out: IC50 corrected for non-specific binding", "value": 2.68, "unit": "µM"}, {"measurement": "IC50", "setting": "OATP1B3; OATP1B3 in MDCK-II cells, read-out: Estimated IC50 using nominal concentrations", "value": 11.4, "unit": "µM"}, {"measurement": "IC50", "setting": "BCRP [4]; BCRP in MDCK-II cells, read-out: Estimated IC50 using nominal concentrations", "value": 10.1, "unit": "µM"}, {"measurement": "IC50", "setting": "BCRP [4]; BCRP, corrected, read-out: IC50 corrected for non-specific binding", "value": 2.38, "unit": "µM"}, {"measurement": "R-value for BCRP inhibition in the gut", "setting": "BCRP [4]; FDA guidance 2020, human dose of 300 mg", "value": "> 10"}, {"measurement": "role of CYP2C19 in metabolism in human liver microsomes", "setting": "2C19", "value": "possible involvement of CYP2C19 to a lesser extent"}, {"measurement": "concentrations at which CYP3A4 mRNA expression was down-regulated (>50% decrease)", "setting": "CYP3A4 mRNA", "value": "≥ 1", "unit": "nM"}, {"measurement": "concentrations at which CYP3a23 mRNA expression was decreased ≥50%", "setting": "CYP3a23 mRNA", "value": "≥ 10", "unit": "nM"}, {"measurement": "IC50", "setting": "BRM", "value": 0.0045, "unit": "µM"}, {"measurement": "IC50", "setting": "CYP1A2", "value": "> 30", "unit": "µM"}, {"measurement": "direct inhibitory activity (% inhibition) toward CYP1A2", "setting": "CYP1A2; [9]", "value": "< 50", "unit": "%"}, {"measurement": "inhibition at 30 µM", "setting": "CYP1A2; [10]", "value": 11.8, "unit": "%"}, {"measurement": "inhibition at 30 µM", "setting": "CYP1A2; [11]", "value": 8.5, "unit": "%"}, {"measurement": "inhibition at 30 µM", "setting": "CYP1A2; No Pre-incubation, PHLM", "value": 11.4, "unit": "%"}, {"measurement": "effect on mRNA expression of CYP2B6", "setting": "CYP2B6 mRNA", "value": "minimal effect"}, {"measurement": "IC50", "setting": "CYP2C19", "value": "> 30", "unit": "µM"}, {"measurement": "direct inhibitory activity (% inhibition) toward CYP2C19", "setting": "CYP2C19; [9]", "value": "< 50", "unit": "%"}, {"measurement": "inhibition at 30 µM", "setting": "CYP2C19; [10]", "value": 28.1, "unit": "%"}, {"measurement": "inhibition at 30 µM", "setting": "CYP2C19; [11]", "value": 21.4, "unit": "%"}, {"measurement": "inhibition at 30 µM", "setting": "CYP2C19; No Pre-incubation, PHLM", "value": 23.1, "unit": "%"}, {"measurement": "role of CYP3A in metabolism in human liver microsomes", "setting": "3A4/5", "value": "major CYP enzyme responsible"}]}]}
